Like-named read-outs stand apart in the source and are kept apart here.
What was measured:
[1] = test system: activation of MAPK within vascular endothelial cells induced by VEGF stimulation; assay: Inhibitory activity against activation of MAPK within vascular endothelial cells induced by VEGF stimulation; assay type: cell-based; settings: human funicular venous vascular endothelial cells, VEGF 50 ng/ml, phosphorylated MAPK by immunoblotting
Method: Measurement of Inhibitory Activity Against Activation of MAPK Within Vascular Endothelial Cells Induced by VEGF Stimulation
Human funicular venous vascular endothelial cells (purchased from Chronetics) were cultured in an EGM-2 medium (purchased from Chronetics) within an incubator containing 5% carbon dioxide until 50 to 70% confluent, and the culture was inoculated into wells, containing the same medium, in a 96-well flat-bottom plate in an amount of 1.5×10^5 per well. After cultivation at 37° C. overnight, the medium was replaced by an EBM-2 medium containing 0.5% fetal calf serum (purchased from Chronetics), followed by cultivation for 24 hr. A solution of the test compound in dimethyl sulfoxide was added to each well, and the cultivation was continued at 37° C. for additional one hr. A human recombinant vascular endothelial growth factor (hereinafter abbreviated to “VEGF”) was added to a final concentration of 50 ng/ml, and the stimulation of cells was carried out at 37° C. for 8 min. The medium was removed, the cells were washed with phosphate buffered saline (pH 7.4), and 10 μl of a solubilization buffer (Tris buffered saline (pH 7.4) containing 1% Triton X100, 2 mM sodium orthovanadylate, and 1 mM disodium ethylenediaminetetraacetate) was then added thereto. The mixture was shaken at 4° C. for one hr to solubilize the cells. An equal amount of Tris buffered saline containing 1% sodium laurylsulfate was added to and thoroughly mixed with the solution. This solution (2 μl) was adsorbed on a PVDF filter by dot blotting, and this filter was subjected to immunoblotting with anti-tyrosine phosphorylated MAPK antibody (purchased from Daiichi Pure Chemicals).
The level of phosphorylated MAPK was quantitatively determined with a densitometer, and the percentage phosphorylated MAPK in the presence of the test compound was determined by presuming the level of phosphorylated MAPK with the addition of VEGF in the absence of the test compound to be 100% and the level of phosphorylated MAPK in the absence of the test compound and VEGF to be 0%. The test compound concentration (IC50) necessary for inhibiting 50% of the activation of MAPK was calculated based on the percentage of phosphorylated MAPK.

Human glioma cells GL07 = assay: Antitumor effect on human glioma cells (GL07) transplanted into nude mice; assay type: in vivo; settings: 20 mg/kg once a day for 9 days; for inhibition in vivo at 20 mg/kg: Mus musculus, Glioma cell, 216 h, read-out: TGIR, % (tumor growth inhibition rate)
In short: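 GL07 xenografts in nude mice, grouped (n=4) at ~100 mm^3 tumor volume. Test compound 20 mg/kg p.o. or i.p. once daily for 9 days; vehicle controls. TGIR = (1−Tx/Cx)×100 from tumor volumes normalized to day-of-start volume = 1.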

human KDR = target: T1, human KDR (Homo sapiens, UniProt P35968); assay: Inhibitory activity against KDR phosphorylation by ELISA; assay type: cell-based; settings: NIH 3T3 cells transfected with human KDR, VEGF 100 ng/ml
T1 construct: expressed in transfected cells; host or cells: NIH 3T3 cells (Sawano A et al., Cell Growth & Differentiation 7, 213-221 (1996))
T1 sequence (P35968 20-1356): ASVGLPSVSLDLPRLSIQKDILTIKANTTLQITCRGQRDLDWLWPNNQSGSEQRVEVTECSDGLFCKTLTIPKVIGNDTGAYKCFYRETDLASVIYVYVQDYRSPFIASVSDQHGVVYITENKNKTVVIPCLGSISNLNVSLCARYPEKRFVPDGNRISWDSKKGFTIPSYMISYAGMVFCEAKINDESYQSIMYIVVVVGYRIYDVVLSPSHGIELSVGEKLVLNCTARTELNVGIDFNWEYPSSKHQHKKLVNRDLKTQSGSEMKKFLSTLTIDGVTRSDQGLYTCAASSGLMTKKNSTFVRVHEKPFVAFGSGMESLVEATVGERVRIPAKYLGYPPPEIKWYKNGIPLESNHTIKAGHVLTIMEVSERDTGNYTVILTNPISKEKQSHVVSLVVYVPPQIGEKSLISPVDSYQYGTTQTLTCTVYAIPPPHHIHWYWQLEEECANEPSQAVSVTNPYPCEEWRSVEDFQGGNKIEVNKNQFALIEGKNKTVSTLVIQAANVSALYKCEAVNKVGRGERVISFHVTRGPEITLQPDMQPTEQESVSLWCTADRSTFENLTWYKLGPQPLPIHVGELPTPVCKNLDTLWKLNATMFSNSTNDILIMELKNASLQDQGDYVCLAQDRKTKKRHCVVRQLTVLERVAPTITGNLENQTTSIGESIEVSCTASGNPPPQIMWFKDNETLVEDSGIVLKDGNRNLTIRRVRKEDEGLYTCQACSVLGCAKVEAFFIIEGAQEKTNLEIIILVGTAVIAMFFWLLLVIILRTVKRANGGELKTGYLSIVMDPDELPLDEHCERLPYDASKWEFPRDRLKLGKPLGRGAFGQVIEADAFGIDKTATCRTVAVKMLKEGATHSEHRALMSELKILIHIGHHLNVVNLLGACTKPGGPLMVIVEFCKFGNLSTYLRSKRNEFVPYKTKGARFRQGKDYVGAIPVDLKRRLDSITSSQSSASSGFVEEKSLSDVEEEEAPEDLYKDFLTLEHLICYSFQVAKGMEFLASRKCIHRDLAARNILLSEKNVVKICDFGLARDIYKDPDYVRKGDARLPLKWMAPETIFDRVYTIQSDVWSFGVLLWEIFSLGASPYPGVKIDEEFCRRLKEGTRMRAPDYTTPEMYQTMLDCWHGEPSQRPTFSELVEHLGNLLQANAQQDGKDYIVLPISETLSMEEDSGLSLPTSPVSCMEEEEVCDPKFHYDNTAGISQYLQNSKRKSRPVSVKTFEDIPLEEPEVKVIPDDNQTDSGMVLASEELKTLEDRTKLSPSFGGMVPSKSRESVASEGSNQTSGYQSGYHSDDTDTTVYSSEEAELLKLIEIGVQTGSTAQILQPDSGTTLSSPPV

| Structure (SMILES) | IC50 ([1]; Endothelial cell) [nM] | IC50 (human KDR) [nM] | other results |
| --- | --- | --- | --- |
| COc1cc2nccc(Oc3ccc(NC(=O)NCc4ccc(F)cc4F)c(F)c3)c2cc1OC [Example 1, N-(2,4-Difluorobenzyl)-N′-{4-[(6,7-dimethoxy-4-quinolyl)oxy]-2-fluorophenyl}urea] | 1.8 |  |  |
| C=CCNC(=O)Nc1ccc(Oc2ccnc3cc(OC)c(OC)cc23)cc1F [Example 4, N-Allyl-N′-{4-[(6,7-dimethoxy-4-quinolyl)-oxy]-2-fluorophenyl}urea] | 2.1 |  | inhibition in vivo at 20 mg/kg (Human glioma cells GL07; GL07, oral): 61% |
| CCCNC(=O)Nc1ccc(Oc2ccnc3cc(OC)c(OC)cc23)cc1F [Example 5, N-{4-[(6,7-Dimethoxy-4-guinolyl)oxy]-2-fluorophenyl}-N′-propylurea] |  |  | IC50 [1]: 2.9 nM; TGIR, % (tumor growth inhibition rate) (Human glioma cells GL07; GL07, oral): 59% |
| C#CCNC(=O)Nc1ccc(Oc2ccnc3cc(OC)c(OC)cc23)cc1F [Example 7, N-{4-[(6,7-Dimethoxy-4-quinolyl)oxy]-2-fluorophenyl}-N′-(2-propynyl)urea] | 5.2 |  |  |
| CCNC(=O)Nc1ccc(Oc2ccnc3cc(OC)c(OC)cc23)cc1F [Example 8, N-{4-[(6,7-Dimethoxy-4-guinolyl)oxy]-2-fluorophenyl}-N′-ethylurea] |  |  | IC50 [1]: 11 nM |
| CCCCNC(=O)Nc1ccc(Oc2ccnc3cc(OC)c(OC)cc23)cc1F [Example 9, N-Butyl N′-{4-[(6,7-dimethoxy-4-quinolyl)oxy]-2-fluorophenyl}urea] | 5.1 |  | inhibition in vivo at 20 mg/kg (Human glioma cells GL07; ip, GL07, intraperitoneal): 59% |
| CCC(C)NC(=O)Nc1ccc(Oc2ccnc3cc(OC)c(OC)cc23)cc1F (centres unmarked) [Example 10, N-(sec-Butyl)-N′-{4-[(6,7-dimethoxy-4-quinolyl)oxy]-2-fluorophenyl}urea] | 7.8 |  |  |
| COc1cc2nccc(Oc3ccc(NC(=O)NCC(C)C)c(F)c3)c2cc1OC [Example 11, N-{4-[(6,7-Dimethoxy-4-quinolyl)oxy]-2-fluorophenyl}-N′-isobutylurea] | 15 |  |  |
| COc1cc2nccc(Oc3ccc(NC(=O)Nc4ccccc4C)c(Cl)c3)c2cc1OC [Example 19, N-{2-Chloro-4-[(6,7-dimethoxy-4-quinolyl)oxy]phenyl}-N′-(2-methylphenyl)urea] | 0.6 |  |  |
| COc1cc2nccc(Oc3ccc(NC(=O)Nc4cccc5ccccc45)c(Cl)c3)c2cc1OC [Example 23, N-{2-Chloro-4-[(6,7-dimethoxy-4-guinolyl)oxy]phenyl}-N′-(1-naphthyl)urea] |  |  | IC50 [1]: 5.4 nM |
| COc1cc2c(Oc3ccc(NC(=O)Nc4ccc(F)cc4F)c(F)c3)ccnc2cc1OCCN1CCOCC1 [Example 50, N-(2,4-Difluorophenyl)-N′-(2-fluoro-4-{[6-methoxy-7-(2-morpholinoethoxy)-4-quinolyl]oxy}phenyl)-urea] | 0.5 |  | inhibition in vivo at 20 mg/kg (Human glioma cells GL07; GL07, oral): 59% |
| COCCOc1cc2nccc(Oc3ccc(NC(=O)Nc4ccc(F)cc4F)c(Cl)c3)c2cc1OC [Example 54, N-(2-Chloro-4-{[6-methoxy-7-(2-methoxyethoxy)-4-quinolyl]oxy}phenyl)-N′-(2,4-difluorophenyl)urea] | 0.5 |  | inhibition in vivo at 20 mg/kg (Human glioma cells GL07; GL07, oral): 59% |
| COCCOc1cc2nccc(Oc3ccc(NC(=O)Nc4ccc(F)cc4F)c(C)c3C)c2cc1OC [Example 56, N-(2,4-Difluorophenyl)-N′-(4-{[6-methoxy-7-(2-methoxyethoxy)-4-quinolyl]oxy}-2,3-dimethylphenyl)-urea] | 5.1 |  |  |
| COCCOc1cc2nccc(Oc3ccc(NC(=O)Nc4ccccc4OC)c(C)c3C)c2cc1OC [Example 57, N-(4-{[6-Methoxy-7-(2-methoxyethoxy)-4-quinolyl]oxy}-2,3-dimethylphenyl)-N′-(2-methoxyphenyl)urea] | 6.5 |  |  |
| CCNC(=O)Nc1ccc(Oc2ncnc3cc(OC)c(OC)cc23)cc1 [Example 63, N-{4-[(6,7-Dimethoxy-4-quinazolinyl)oxy]-phenyl}-N′-ethylurea] | 70 | 150 |  |
| CCCNC(=O)Nc1ccc(Oc2ncnc3cc(OC)c(OC)cc23)cc1 [Example 64, N-{4-[(6,7-Dimethoxy-4-quinazolinyl)oxy]-phenyl}-N′-propylurea] | 42 | 150 | inhibition in vivo at 20 mg/kg (Human glioma cells GL07; GL07, oral): 37% |

| Structure (SMILES) | IC50 ([1]; Endothelial cell) [nM] | IC50 (human KDR) [nM] | other results |
| --- | --- | --- | --- |
| CCCCCNC(=O)Nc1ccc(Oc2ncnc3cc(OC)c(OC)cc23)cc1 [Example 66, N-{4-[(6,7-Dimethoxy-4-quinazolinyl)oxy]-phenyl}-N′-pentylurea] | 21 | 15 | inhibition in vivo at 20 mg/kg (Human glioma cells GL07; GL07, oral): 26% |
| CCC(C)NC(=O)Nc1ccc(Oc2ncnc3cc(OC)c(OC)cc23)cc1 (centres unmarked) [Example 67, N-(sec-Butyl)-N′-{4-[(6,7-dimethoxy-4-quinazolinyl)oxy]phenyl}urea] | 345 | 63 | inhibition in vivo at 20 mg/kg (Human glioma cells GL07; GL07, oral): 30% |
| C=CCNC(=O)Nc1ccc(Oc2ncnc3cc(OC)c(OC)cc23)cc1 [Example 68, N-Allyl-N′-{4-[(6,7-Dimethoxy-4-quinazolinyl)oxy]phenyl}urea] | 45 | 24 | inhibition in vivo at 20 mg/kg (Human glioma cells GL07; GL07, oral): 57% |
| C#CCNC(=O)Nc1ccc(Oc2ncnc3cc(OC)c(OC)cc23)cc1 [Example 69, N-{4-[(6,7-Dimethoxy-4-quinazolinyl)-oxy]phenyl}-N′-(2-propynyl)urea] | 67 | 64 | inhibition in vivo at 20 mg/kg (Human glioma cells GL07; GL07, oral): 26% |
| COc1cc2ncnc(Oc3ccc(NC(=O)NCc4ccc(F)cc4F)cc3)c2cc1OC [Example 70, N-(2,4-Difluorobenzyl)-N′-{4-[(6,7-dimethoxy-4-quinazolinyl)oxy]phenyl}urea] | 6.8 | 32 |  |
| COc1cc2ncnc(Oc3ccc(NC(=O)NCc4ccccn4)cc3)c2cc1OC [Example 71, N-{4-[(6,7-Dimethoxy-4-quinazolinyl)oxy]-phenyl}-N′-(2-pyridylmethyl)urea] | 750 | 350 | inhibition in vivo at 20 mg/kg (Human glioma cells GL07; GL07, oral): 67% |
| COc1ccccc1NC(=O)Nc1ccc(Oc2ncnc3cc(OC)c(OC)cc23)cc1 [Example 75, N-{4-[(6,7-Dimethoxy-4-quinazolinyl)oxy]-phenyl}-N′-(2-methoxyphenyl)urea] | 1.2 | 1.4 |  |
| CCNC(=O)Nc1ccc(Oc2ncnc3cc(OC)c(OC)cc23)cc1Cl [Example 76, N-{2-chloro-4-[(6,7-dimethoxy-4-quinazolinyl)-oxy]phenyl}-N′-ethylurea] | 8 | 3.5 |  |
| COc1ccccc1NC(=O)Nc1ccc(Oc2ncnc3cc(OC)c(OC)cc23)cc1Cl [Example 86, N-{2-Chloro-4-[(6,7-dimethoxy-4-quinazolinyl)oxy]phenyl}-N′-(2-methoxyphenyl)urea] | 0.6 | 1.5 |  |
| COc1cc2ncnc(Oc3ccc(NC(=O)Nc4ccc(Cl)cn4)c(Cl)c3)c2cc1OC [Example 87, N-{2-Chloro-4-[(6,7-dimethoxy-4-quinazolinyl)oxy]phenyl}-N′-(5-chloro-2-pyridyl)urea] | 58 | 110 |  |
| CCC(C)NC(=O)Nc1ccc(Oc2ncnc3cc(OC)c(OC)cc23)cc1F (centres unmarked) [Example 90, N-(sec-Butyl)-N′-{4-[(6,7-dimethoxy-4-quinazolinyl)oxy]-2-fluorophenyl}urea] | 42 | 57 |  |
| C#CCNC(=O)Nc1ccc(Oc2ncnc3cc(OC)c(OC)cc23)cc1F [Example 92, N-{4-[(6,7-Dimethoxy-4-quinazolinyl)oxy]-2-fluorophenyl}-N′-(2-propynyl)urea] | 46 | 63 |  |
| COc1cc2ncnc(Oc3ccc(NC(=O)Nc4ccccc4C)c(F)c3)c2cc1OC [Example 95, N-{4-[(6,7-Dimethoxy-4-quinazolinyl)oxy]-2-fluorophenyl}-N′-(2-methylphenyl)urea] | 2.7 | 3.8 |  |
| COc1ccccc1NC(=O)Nc1ccc(Oc2ncnc3cc(OC)c(OC)cc23)cc1F [Example 96, N-{4-[(6,7-Dimethoxy-4-quinazolinyl)oxy]-2-fluorophenyl}-N′-(2-methoxyphenyl)urea] | < 1 | 0.4 |  |
| COc1ccccc1NC(=O)Nc1ccc(Oc2ncnc3cc(OC)c(OC)cc23)cc1C [Example 106, N-{4-[(6,7-Dimethoxy-4-quinazolinyl)oxy]-2-methylphenyl}-N′-(2-methoxyphenyl)urea] | < 1 | 1.5 |  |

Source: patent US7169789B2 (Kirin Beer Kabushiki Kaisha, priority 1999, dated 2007)
